Experiments:
Rat H3 [1] = molecular target: T1, Rat H3 (Rattus norvegicus, UniProt Q9QYN8); assay: H3 Receptor Binding (Rat); parameters: A rat brain without cerebellum (Zivic Laboratories Inc., Pittsburgh, Pa.) was homogenized; tissue Zivic Laboratories Inc; host or cells: rat brain without cerebellum (membranes); conditions: rat brain (without cerebellum) membranes; 0.8 nM N-[3H]-α-methylhistamine, 60 min at 25° C.; IC50 converted to Ki; average
Description: A rat brain without cerebellum (Zivic Laboratories Inc., Pittsburgh, Pa.) was homogenized in 50 mM Tris-HCl/5 mM EDTA and centrifuged at 1,000 rpm for 5 min. The supernatant was removed and recentrifuged at 15,000 rpm for 30 min. Pellets were rehomogenized in 50 mM Tris/5 mM EDTA (pH 7.4). Membranes were incubated with 0.8 nM N-[^3H]-α-methylhistamine plus/minus test compounds for 60 min at 25° C. and harvested by rapid filtration over GF/C glass fiber filters (pretreated with 0.3% polyethylenimine) followed by four washes with buffer. Nonspecific binding was defined in the presence of 100 μM histamine. Inhibitory concentration (responsible for 50% inhibition of maximal effect, IC50) values were determined by a single site curve-fitting program (GraphPad, San Diego, Calif.) and converted to Ki values based on a N-[^3H]-α-methylhistamine dissociation constant (Kd) of 0.8 nM. Data for compounds tested in this assay are presented in Table 2 as an average of the results obtained.

Rat H3 [2] = molecular target: T1, Rat H3; assay: Cyclic AMP Accumulation (rat H3 receptor); assay type: cell-based; parameters: expressed in transfected cells; host or cells: SK-N-MC sublines with reporter construct; conditions: SK-N-MC cells expressing a reporter construct and the rat H3 receptor; average; read-out: Rat pA2 (converted)
Source text: (§1) Sublines of SK-N-MC cells were created that expressed a reporter construct and either the human or rat H3 receptor. The pA2 values were obtained as described by Barbier et al. (2004). Data for compounds tested in these assays are presented in Table 3, as an average of the results obtained (NT=not tested).

[3] = molecular target: T2, cloned human H3 receptors (Homo sapiens, UniProt Q9Y5N1); assay: H3 Receptor Binding (Human); conditions: cloned human H3 receptors stably expressed in SK-N-MC cells; average of the results obtained
T2 construct: expressed in transfected cells; host or cells: SK-N-MC cells
Description: Binding of compounds to the cloned human H3 receptors, stably expressed in SK-N-MC cells, was performed as described by Barbier, A. J. et al. (Br. J. Pharmacol. 2004, 143(5), 649-661). Data for compounds tested in this assay are presented in Table 1 as an average of the results obtained.

human H3 receptor = molecular target: T3, human H3 receptor (Homo sapiens, UniProt Q9Y5N1); assay: Cyclic AMP Accumulation (human H3 receptor); assay type: cell-based; conditions: SK-N-MC cells expressing a reporter construct and the human H3 receptor; average; read-out: Human pA2 (converted)
T3 construct: expressed in transfected cells; host or cells: SK-N-MC sublines with reporter construct
Source text: as §1

T2 sequence (Q9Y5N1 whole entry): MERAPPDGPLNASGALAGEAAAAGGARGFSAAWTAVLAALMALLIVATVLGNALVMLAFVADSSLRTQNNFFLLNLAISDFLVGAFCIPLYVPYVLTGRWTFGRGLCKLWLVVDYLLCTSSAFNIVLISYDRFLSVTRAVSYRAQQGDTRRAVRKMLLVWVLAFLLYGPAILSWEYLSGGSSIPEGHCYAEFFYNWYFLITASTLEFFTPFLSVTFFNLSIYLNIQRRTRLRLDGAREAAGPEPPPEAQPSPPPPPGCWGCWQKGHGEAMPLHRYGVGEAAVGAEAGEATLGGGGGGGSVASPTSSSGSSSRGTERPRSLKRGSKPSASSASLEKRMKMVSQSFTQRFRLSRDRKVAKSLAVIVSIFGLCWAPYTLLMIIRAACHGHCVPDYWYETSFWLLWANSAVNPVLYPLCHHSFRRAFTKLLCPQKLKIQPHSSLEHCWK
T3 sequence (Q9Y5N1 whole entry): as above
T1 sequence (Q9QYN8 whole entry): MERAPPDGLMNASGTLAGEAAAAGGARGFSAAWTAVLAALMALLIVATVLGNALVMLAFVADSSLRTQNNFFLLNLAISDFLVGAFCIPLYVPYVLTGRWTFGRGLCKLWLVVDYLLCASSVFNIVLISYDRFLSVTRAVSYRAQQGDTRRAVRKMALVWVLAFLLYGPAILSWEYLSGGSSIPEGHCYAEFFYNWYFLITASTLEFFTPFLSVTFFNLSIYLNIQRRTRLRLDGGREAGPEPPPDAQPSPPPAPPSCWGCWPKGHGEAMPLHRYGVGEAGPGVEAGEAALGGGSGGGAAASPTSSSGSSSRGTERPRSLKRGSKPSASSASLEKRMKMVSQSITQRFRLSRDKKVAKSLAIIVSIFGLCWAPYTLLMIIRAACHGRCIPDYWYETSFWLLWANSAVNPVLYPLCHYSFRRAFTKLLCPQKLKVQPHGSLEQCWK

| Ki (Rat H3 [1]) [nM] | Kb (Rat H3 [2]) [nM] | Ki [3] [nM] | Kb (human H3 receptor) [nM] | SMILES |
| --- | --- | --- | --- | --- |
| 2 | 2.4 | 5 | 1.29 | O=C(c1ccc2c(c1)CCN(Cc1ccccc1)C2)N1CCN(C2CCC2)CC1 [Example 18, (2-Benzyl-1,2,3,4-tetrahydro-isoquinolin-6-yl)-(4-cyclobutyl-piperazin-1-yl)-methanone] |
|  | 2.34 | 1 | 0.513 | O=C(c1ccc2c(c1)CCN(C(=O)c1ccccc1)C2)N1CCCN(C2CCC2)CC1 [Example 35, [6-(4-Cyclobutyl-[1,4]diazepane-1-carbonyl)-3,4-dihydro-1H-isoquinolin-2-yl]-phenyl-methanone] |
| 135 | 15.1 | 5 | 8.51 | O=C(c1ccc2c(c1)CCN(C(=O)C1CCCC1)C2)N1CCN(C2CCC2)CC1 [Example 32, [6-(4-Cyclobutyl-piperazine-1-carbonyl)-3,4-dihydro-1H-isoquinolin-2-yl]-cyclopentyl-methanone] |
|  | 3.02 | 1 | 0.38 | O=C(c1ccc2c(c1)CCN(C(=O)C1CCCC1)C2)N1CCCN(C2CCC2)CC1 [Example 39, [6-(4-Cyclobutyl-[1,4]diazepane-1-carbonyl)-3,4-dihydro-1H-isoquinolin-2-yl]-cyclopentyl-methanone] |

— patent publication US20090099158A1, “TETRAHYDROISOQUINOLINE COMPOUNDS AS MODULATORS OF THE HISTAMINE H3 RECEPTOR” (priority 2007, published 2009)
